Earlier results, collected in US20140356497A1, “Composition” (Natural Biotechnology SPRL, priority 2011, published 2014).

Tested on: Red Delicious apples
Details: 0.25% calcium ascorbate; considered unsatisfactory

calcium ascorbate
time for which Red Delicious apples are preserved: ≤ 1 h
